From patent publication US11071731B2, “Allosteric modulators of the mu opioid receptor” (Chiromics, LLC, priority 2017, dated 2021)

What was measured:
mu opioid receptor (MOR) [1] = biological target: T1, mu opioid receptor (MOR) (Homo sapiens, UniProt P35372); assay: Hit Hunter cAMP signaling assay (adenylyl cyclase inhibition), PAM mode with EC20 endomorphin-1; format: cell-based; conditions: for allosteric activity for cAMP signaling: EC20 endomorphin-1 concentration of 0.45 nM
mu opioid receptor (MOR) [2] = biological target: T1, mu opioid receptor (MOR); assay: PathHunter β-arrestin recruitment assay, PAM mode with EC20 endomorphin-1; format: cell-based; conditions: for allosteric activity for β-arrestin recruitment: EC20 endomorphin-1 concentration of 4.5 nM
Procedure, shortened: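 Enzyme fragment complementation read-out: β-gal ED fragment fused to receptor, EA fused to β-arrestin, recruitment restoring β-gal activity detected by chemiluminescence. EC50 and percent maximal response derived for each compound.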

[3] = adenylyl cyclase inhibition, read-out: cAMP EC50
[4] = maximal response for adenylyl cyclase inhibition
[5] = maximal response for β-arrestin recruitment
[6] = β-arrestin recruitment, read-out: β-arr. EC50
[7] = cAMP EC50, adenylyl cyclase inhibition
[8] = maximal response, adenylyl cyclase inhibition
[9] = maximal response, β-arrestin recruitment
[10] = adenylyl cyclase inhibition, activity switching by MOR PAMs
[11] = adenylyl cyclase inhibition, activity switching by MOR PAMs, read-out: cAMP EC50
[12] = β-arrestin recruitment, activity switching by MOR PAMs
[13] = β-arrestin recruitment, activity switching by MOR PAMs, read-out: β-arrestin EC50

T1 sequence (P35372 whole entry): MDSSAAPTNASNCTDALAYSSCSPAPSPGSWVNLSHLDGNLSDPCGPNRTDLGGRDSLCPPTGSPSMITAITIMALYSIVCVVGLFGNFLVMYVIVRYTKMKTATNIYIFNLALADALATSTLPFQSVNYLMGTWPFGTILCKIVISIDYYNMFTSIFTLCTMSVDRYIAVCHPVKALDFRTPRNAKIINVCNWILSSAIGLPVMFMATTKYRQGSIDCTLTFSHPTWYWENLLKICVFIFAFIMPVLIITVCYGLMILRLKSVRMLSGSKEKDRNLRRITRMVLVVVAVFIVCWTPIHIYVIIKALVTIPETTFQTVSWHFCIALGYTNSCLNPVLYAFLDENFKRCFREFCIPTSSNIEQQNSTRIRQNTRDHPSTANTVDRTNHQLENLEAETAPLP

| Compound | EC50 (mu opioid receptor (MOR) [1]; [3]) [nM] | cAMP Max. Resp. (mu opioid receptor (MOR) [1]; [4]) | β-arr Max. Resp. (mu opioid receptor (MOR) [2]; [5]) | EC50 (mu opioid receptor (MOR) [2]; [6]) [µM] | EC50 (mu opioid receptor (MOR) [1]; [7]) [nM] | further results |
| --- | --- | --- | --- | --- | --- | --- |
| Fc1cc(C2COCCN2c2nc(Cl)ncc2F)cc(C(F)(F)F)c1 (racemic) [Compound 190] | < 700 | F (F represents a maximal response of > 60%) | F (F represents a maximal response of > 60%) | 0.7 to 2.1 | – | – |
| Fc1cnc(Cl)nc1N1CCCCC1c1cncc(Cl)n1 (stereo not shown) [compound 277] | – | D (D represents a maximal response of < 40%) | E (E represents a maximal response of 40-60%) | > 2.1 | > 2100 | – |
| O=S(=O)(c1cc(F)ccc1F)N1CCCC(F)C1c1ccc(F)c(Br)c1 (stereo not shown) [Compound 38] | > 2100 | – | – | > 2.1 | – | – |
| C=C1CCN(c2nc(Cl)ncc2F)C(c2cc(F)cc(C(F)(F)F)c2)C1 (stereo not shown) [compound 200] | – | E (E represents a maximal response of 40-60%) | F (F represents a maximal response of > 60%) | < 0.7 | < 700 | – |
| FC(F)(F)c1cccc(C2CCCCN2c2ccnc(Cl)n2)c1 (stereo not shown) [compound 257] | – | D (D represents a maximal response of < 40%) | F (F represents a maximal response of > 60%) | > 2.1 | > 2100 | – |
| Fc1cnc(Cl)nc1N1CCCCC1c1cc(Cl)ccn1 (stereo not shown) [compound 408] | – | D (D represents a maximal response of < 40%) | D (D represents a maximal response of < 40%) | < 0.7 | < 700 | – |
| Cc1ccc(C2CCCCN2S(=O)(=O)c2ccc(Cl)cc2)cc1Br (racemic) [compound 70] | > 2100 | E (E represents a maximal response of 40-60%) | F (F represents a maximal response of > 60%) | > 2.1 | – | – |
| CC1CCN(S(=O)(=O)c2ccc(Cl)cc2)C1c1ccc(F)cc1 (mixture of isomers) [Compound 95] | > 2100 | D (D represents a maximal response of < 40%) | F (F represents a maximal response of > 60%) | > 2.1 | – | – |
| COc1ccc(C2CCCCN2c2nc(Cl)c(C#N)cc2F)cc1Br (stereo not shown) [compound 449] | – | – | – | > 2.1 | > 2100 | cAMP Max. Resp. (mu opioid receptor (MOR) [1]; [8]): D (D represents a maximal response of < 40%); β-arr Max. Resp. (mu opioid receptor (MOR) [2]; [9]): F (F represents a maximal response of > 60%) |
| O=S(=O)(c1ccc(Cl)cc1F)N1CCCCC1c1cccc(C(F)(F)F)c1 (stereo not shown) [Compound 25] | > 2100 | D (D represents a maximal response of < 40%) | F (F represents a maximal response of > 60%) | > 2.1 | – | – |
| Cc1noc(C2CCCCN2c2nc(Cl)ncc2F)n1 (stereo not shown) [compound 358] | – | D (D represents a maximal response of < 40%) | D (D represents a maximal response of < 40%) | < 0.7 | < 700 | – |
| O=S(=O)(c1ccc(Cl)cc1)N1CCCCC1c1ccc2c(c1)CCO2 (racemic) [compound 66] | > 2100 | E (E represents a maximal response of 40-60%) | F (F represents a maximal response of > 60%) | > 2.1 | – | – |
| OC1CCN(c2nc(Cl)ncc2F)C(c2cccc(C(F)(F)F)c2)C1 (stereo not shown) [compound 202] | – | E (E represents a maximal response of 40-60%) | F (F represents a maximal response of > 60%) | > 2.1 | > 2100 | – |
| COc1ccc(C2C(C(F)(F)F)CCN2S(=O)(=O)c2ccc(Cl)cc2)cc1Br (mixture of isomers) [Compound 90] | > 2100 | D (D represents a maximal response of < 40%) | D (D represents a maximal response of < 40%) | > 2.1 | – | – |
| CC1CCN(S(=O)(=O)c2ccc(Cl)cc2)C1c1ccc(Cl)c(C(F)(F)F)c1 (mixture of isomers) [Compound 87] | > 2100 | D (D represents a maximal response of < 40%) | F (F represents a maximal response of > 60%) | > 2.1 | – | – |
| O=S(=O)(c1ccc(Cl)cc1)N1CCCCC1c1cncc(C(F)(F)F)n1 (stereo not shown) [compound 63] | > 2100 | E (E represents a maximal response of 40-60%) | F (F represents a maximal response of > 60%) | > 2.1 | – | cAMP Max Resp. (mu opioid receptor (MOR) [1]; [10]): E (E represents a maximal response of 40-60%); EC50 (mu opioid receptor (MOR) [1]; [11]): > 2100 nM; β-arrestin Max Response (mu opioid receptor (MOR) [2]; [12]): F (F represents a maximal response of >60%); EC50 (mu opioid receptor (MOR) [2]; [13]): > 2.1 µM |
| C#Cc1ccccc1N1CCCCC1c1ccc(F)c(Cl)c1 (stereo not shown) [compound 463] | > 2100 | – | – | > 2.1 | – | cAMP Max. Resp. (mu opioid receptor (MOR) [1]; [8]): D (D represents a maximal response of < 40%); β-arr Max. Resp. (mu opioid receptor (MOR) [2]; [9]): D (D represents a maximal response of < 40%) |
| O=S(=O)(c1ccc(Cl)cc1)N1CCCCC1c1nccc(C(F)(F)F)n1 (racemic) [compound 73] | > 2100 | D (D represents a maximal response of < 40%) | F (F represents a maximal response of > 60%) | > 2.1 | – | cAMP Max Resp. (mu opioid receptor (MOR) [1]; [10]): D (D represents a maximal response of < 40%); EC50 (mu opioid receptor (MOR) [1]; [11]): > 2100 nM; β-arrestin Max Response (mu opioid receptor (MOR) [2]; [12]): F (F represents a maximal response of >60%); EC50 (mu opioid receptor (MOR) [2]; [13]): > 2.1 µM |
| COc1ccc(C2CCCCN2S(=O)(=O)c2ccccc2)cc1Br (stereo not shown) [compound 14] | – | E (E represents a maximal response of 40-60%) | F (F represents a maximal response of > 60%) | > 2.1 | > 2100 | allosteric activity for cAMP signaling (mu opioid receptor (MOR) [1]): silent allosteric activity; allosteric activity for cAMP signaling (mu opioid receptor (MOR) [1]; listed as Compound No. 14): dual silent allosteric modulation; EC50 (mu opioid receptor (MOR) [1]; cAMP EC50 (nM), adenylyl cyclase inhibition, Table 3): 9610 nM; cAMP Max Resp. (mu opioid receptor (MOR) [1]; maximal response for adenylyl cyclase inhibition, Table 3): 43; allosteric activity for β-arrestin recruitment (mu opioid receptor (MOR) [2]): silent allosteric activity; allosteric activity for β-arrestin recruitment (mu opioid receptor (MOR) [2]; listed as Compound No. 14): dual silent allosteric modulation; β-arr. Max Resp. (mu opioid receptor (MOR) [2]; maximal response for β-arrestin recruitment, Table 3): 111; EC50 (mu opioid receptor (MOR) [2]; β-arrestin recruitment, Table 3, read-out: β-arr. EC50): 13.2 µM |
| Cc1cc(C2CCCCN2c2nc(Cl)ncc2F)ccc1F (stereo not shown) [compound 130] | – | E (E represents a maximal response of 40-60%) | F (F represents a maximal response of > 60%) | < 0.7 | 700 to 2100 | – |
| Fc1cnc(Cl)nc1N1CCCCC1c1ccc2nccn2c1 (stereo not shown) [compound 421] | – | – | – | < 0.7 | < 700 | cAMP Max. Resp. (mu opioid receptor (MOR) [1]; [8]): D (D represents a maximal response of < 40%); β-arr Max. Resp. (mu opioid receptor (MOR) [2]; [9]): D (D represents a maximal response of < 40%) |
| COc1cccc(CN2CCCCC2c2cccc(C(F)(F)F)n2)c1 (stereo not shown) [compound 156] | – | E (E represents a maximal response of 40-60%) | F (F represents a maximal response of > 60%) | > 2.1 | > 2100 | – |
| COc1ccc(C2CCCCN2S(=O)(=O)c2ccc(Cl)cc2)cc1Br (single isomer, unassigned) [compound 5] | – | D (D represents a maximal response of < 40%) | D (D represents a maximal response of < 40%) | > 2.1 | > 2100 | – |
| Cc1nccc(N2CCCCC2c2ccc(F)c(Cl)c2)n1 (stereo not shown) [compound 480] | – | – | – | > 2.1 | > 2100 | cAMP Max. Resp. (mu opioid receptor (MOR) [1]; [8]): D (D represents a maximal response of < 40%); β-arr Max. Resp. (mu opioid receptor (MOR) [2]; [9]): D (D represents a maximal response of < 40%) |
| Cc1cc(C)cc(N2CCCCC2c2ccc(F)c(Cl)c2)c1 (stereo not shown) [compound 471] | – | – | – | > 2.1 | > 2100 | cAMP Max. Resp. (mu opioid receptor (MOR) [1]; [8]): D (D represents a maximal response of < 40%); β-arr Max. Resp. (mu opioid receptor (MOR) [2]; [9]): F (F represents a maximal response of > 60%) |
| O=C1CCN(c2nc(Cl)ncc2F)C(c2cccc(C(F)(F)F)c2)C1 (stereo not shown) [compound 239] | – | D (D represents a maximal response of < 40%) | E (E represents a maximal response of 40-60%) | > 2.1 | > 2100 | – |
